Data reported in ChEMBL document CHEMBL1201862, “PubChem BioAssay data set” (2004).
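Briefly, cells in 96-well plates were exposed to five compound concentrations for 48 h, and endpoints were estimated by linear interpolation. Abbreviation: GI50, concentration required for 50% inhibition of growth.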 Active and inactive are the calls of the source. Cut-off read from the data, not from the text of the source: active = GI50 up to about 1.1 µM and inactive = higher.

Legend:
Experiment in all cases: NCI anticancer screen, dose series, 48 h
BT-549 = system: BT-549
IGROV-1 = system: IGROV-1
SNB-19 = system: SNB-19
UACC-62 = system: UACC-62
NCI/ADR-RES = system: NCI/ADR-RES
M14 = system: M14
OVCAR-8 = system: OVCAR-8
MOLT-4 = system: MOLT-4
KM12 = system: KM12
RXF 393 = system: RXF 393
EKVX = system: EKVX
A549 = system: A549
SK-OV-3 = system: SK-OV-3
MDA-N = system: MDA-N
SK-MEL-5 = system: SK-MEL-5
SN12C = system: SN12C
HT-29 = system: HT-29
HOP-92 = system: HOP-92
LOX IMVI = system: LOX IMVI
CCRF-CEM = system: CCRF-CEM
Malme-3M = system: Malme-3M
U-251 = system: U-251
NCI-H23 = system: NCI-H23
UO-31 = system: UO-31
OVCAR-5 = system: OVCAR-5
TK-10 = system: TK-10
HOP-62 = system: HOP-62
MDA-MB-435 = system: MDA-MB-435
SK-MEL-28 = system: SK-MEL-28
RPMI-8226 = system: RPMI-8226
T47D = system: T47D
COLO 205 = system: COLO 205
SF-295 = system: SF-295
CAKI-1 = system: CAKI-1
DU-145 = system: DU-145
K562 = system: K562
OVCAR-3 = system: OVCAR-3
786-0 = system: 786-0
UACC-257 = system: UACC-257
NCI-H226 = system: NCI-H226
SF-268 = system: SF-268
PC-3 = system: PC-3
HCT-15 = system: HCT-15
MDA-MB-231 = system: MDA-MB-231
SNB-75 = system: SNB-75
SK-MEL-2 = system: SK-MEL-2
HCT-116 = system: HCT-116
Hs-578T = system: Hs-578T
SW-620 = system: SW-620
OVCAR-4 = system: OVCAR-4
ACHN = system: ACHN
NCI-H522 = system: NCI-H522
NCI-H460 = system: NCI-H460
HCC 2998 = system: HCC 2998
SF-539 = system: SF-539
SR = system: SR
HL-60 = system: HL-60
MCF7 = system: MCF7
A498 = system: A498

Measured: GI50

Cc1ccc(/N=N/c2c(O)ccc3cc(S(=O)(=O)O)ccc23)cc1
inactive: BT-549 > 100 µM | IGROV-1 64.3 µM | SNB-19 > 100 µM | UACC-62 > 100 µM | NCI/ADR-RES > 100 µM | M14 > 100 µM | OVCAR-8 > 100 µM | MOLT-4 > 100 µM | KM12 74.6 µM | RXF 393 > 100 µM | EKVX 29.6 µM | A549 > 100 µM | SK-OV-3 > 100 µM | MDA-N > 100 µM | SK-MEL-5 > 100 µM | SN12C > 100 µM | HT-29 > 100 µM | HOP-92 > 100 µM | LOX IMVI 18.2 µM | CCRF-CEM > 100 µM | Malme-3M > 100 µM | U-251 > 100 µM | NCI-H23 > 100 µM | UO-31 > 100 µM | OVCAR-5 > 100 µM | TK-10 > 100 µM | HOP-62 > 100 µM | MDA-MB-435 > 100 µM | SK-MEL-28 > 100 µM | RPMI-8226 > 100 µM | T47D 66.8 µM | COLO 205 73.5 µM | SF-295 > 100 µM | CAKI-1 23.9 µM | DU-145 > 100 µM | K562 > 100 µM | OVCAR-3 > 100 µM | 786-0 12.6 µM | UACC-257 > 100 µM | NCI-H226 > 100 µM | SF-268 85.5 µM | PC-3 > 100 µM | MDA-MB-231 18.8 µM | SNB-75 34.8 µM | SK-MEL-2 > 100 µM | HCT-116 24.2 µM | Hs-578T > 100 µM | SW-620 > 100 µM | OVCAR-4 > 100 µM | ACHN > 100 µM | NCI-H522 > 100 µM
> 100 µM: HCT-15

COc1cc2c(c(O)c1OC)-c1c(cc(OC)c(OC)c1OC)CC(C)C(C)C2 (stereo not given) [GOMISIN K3]
33 µM: HCT-15
inactive: BT-549 40.8 µM | IGROV-1 51.1 µM | SNB-19 60.8 µM | UACC-62 43.1 µM | M14 45.1 µM | NCI-H460 31.2 µM | OVCAR-8 51.9 µM | MOLT-4 16.6 µM | KM12 61.1 µM | RXF 393 30.9 µM | EKVX 47.3 µM | A549 43.7 µM | SK-OV-3 82.4 µM | MDA-N 73.3 µM | SK-MEL-5 35.6 µM | SN12C 47.8 µM | HCC 2998 42.3 µM | HT-29 40.6 µM | HOP-92 36.7 µM | LOX IMVI 49.9 µM | CCRF-CEM 23.4 µM | Malme-3M 68.7 µM | U-251 49.9 µM | NCI-H23 49 µM | UO-31 29.4 µM | OVCAR-5 > 100 µM | TK-10 26.5 µM | HOP-62 > 100 µM | MDA-MB-435 50 µM | SK-MEL-28 67.1 µM | RPMI-8226 39.4 µM | T47D 30.4 µM | SF-539 66.1 µM | COLO 205 32 µM | SF-295 33.9 µM | CAKI-1 42.8 µM | DU-145 45.8 µM | K562 38.8 µM | OVCAR-3 47.1 µM | 786-0 37.7 µM | UACC-257 25.6 µM | NCI-H226 42.8 µM | SF-268 78 µM | SR 31.3 µM | PC-3 28.6 µM | HL-60 25.5 µM | MCF7 33 µM | MDA-MB-231 37.8 µM | SNB-75 34.3 µM | SK-MEL-2 45.2 µM | HCT-116 34.7 µM | A498 35.1 µM | Hs-578T 69.8 µM | SW-620 70.3 µM | OVCAR-4 30.3 µM | ACHN 39.1 µM | NCI-H522 44.6 µM
